Measurements: US10010545B1, “Antibiotic compositions and methods of use” (University of South Florida, priority 2013, dated 2018)
≈ marks a conversion by molar mass, not a printed value.

Legend:
[1] = tested on: Pseudomonas aeruginosa; experiment: Growth testing against ESKAPE pathogens: Pseudomonas aeruginosa; assay type: cell-based; set-up: key: Growth; X: No Growth
Protocol: (§1) Six analogs (FIG. 2) of the ciprofloxacin-N thiolated β-lactam were successfully synthesized. All these compounds were then tested against ESKAPE pathogens for bioactivity. The ESKAPE pathogens are a collection of six deadly superbugs, Enterococcus faecium, Staphylococcus aureus, Klebsiella pneumoniae, Acinetobacter baumannii, Pseudomonas aeruginosa, and Enterobacter species. […] G denotes growth and X denotes no growth in the tables.

[2] = tested on: Enterococcus faecium; experiment: Growth testing against ESKAPE pathogens: Enterococcus faecium; assay type: cell-based; set-up: key: Growth; X: No Growth
Protocol: as §1

[3] = tested on: MRSA; experiment: Growth inhibition against MRSA; assay type: cell-based; details: at 1 μg/ml against MRSA
Protocol: as §1
Synthesis of dual drugs for the antibacterial purposes is a huge arena of research and for the first time this was done with the N-thiolated β-lactams. Though both N-acyl ciprofloxacins and N-thiolated β-lactams have been independently studied, the attempt to combine them via a cleavable covalent bond was never done. This study has elaborated on the synthesis of six such analogs.

[4] = tested on: Staphylococcus aureus; experiment: Growth testing against ESKAPE pathogens: Staphylococcus aureus; assay type: cell-based; set-up: key to Activity against Staphylococcus aureus (growth observed): Growth; X: No Growth; details: for MIC: against S. aureus
Protocol: as §1

[5] = tested on: Klebesiella pneumonia; experiment: Growth testing against ESKAPE pathogens: Klebesiella pneumonia; assay type: cell-based, Klebsiella pneumoniae; set-up: key: Growth; X: No Growth
Protocol: as §1

[6] = tested on: Acinetobacter baumannii; experiment: Growth testing against ESKAPE pathogens: Acinetobacter baumannii; assay type: cell-based; set-up: key: Growth; X: No Growth
Protocol: as §1

CCC(C)SN1C(=O)C(OC(=O)c2cn(C3CC3)c3cc(N4CCN(C(C)=O)CC4)c(F)cc3c2=O)C1c1ccccc1Cl (centres unmarked) [Lactam 125]
Activity against Pseudomonas aeruginosa (growth observed) ([1]; 1 μg/ml): G | Activity against Pseudomonas aeruginosa (growth observed) ([1]; 2 μg/ml): G | Activity against Pseudomonas aeruginosa (growth observed) ([1]; 3 μg/ml): G | Activity against Pseudomonas aeruginosa (growth observed) ([1]; 4 μg/ml): G | Activity against Pseudomonas aeruginosa (growth observed) ([1]; 5 μg/ml): G | Activity against Pseudomonas aeruginosa (growth observed) ([1]; 6 μg/ml): G | Activity against Pseudomonas aeruginosa (growth observed) ([1]; 7 μg/ml): G | Activity against Pseudomonas aeruginosa (growth observed) ([1]; 8 μg/ml): G | Activity against Pseudomonas aeruginosa (growth observed) ([1]; 9 μg/ml): G | Activity against Pseudomonas aeruginosa (growth observed) ([1]; 10 μg/ml): G | Activity against Pseudomonas aeruginosa (growth observed) ([1]; 25 μg/ml): G | Activity against Enterococcus faecium (growth observed) ([2]; 1 μg/ml): G | Activity against Enterococcus faecium (growth observed) ([2]; 2 μg/ml): G | Activity against Enterococcus faecium (growth observed) ([2]; 3 μg/ml): G | Activity against Enterococcus faecium (growth observed) ([2]; 4 μg/ml): G | Activity against Enterococcus faecium (growth observed) ([2]; 5 μg/ml): G | Activity against Enterococcus faecium (growth observed) ([2]; 6 μg/ml): G | Activity against Enterococcus faecium (growth observed) ([2]; 7 μg/ml): G | Activity against Enterococcus faecium (growth observed) ([2]; 8 μg/ml): G | Activity against Enterococcus faecium (growth observed) ([2]; 9 μg/ml): G | Activity against Enterococcus faecium (growth observed) ([2]; 10 μg/ml): G | Activity against Enterococcus faecium (growth observed) ([2]; 25 μg/ml): G | growth inhibition [3]: complete growth inhibition | Activity against Staphylococcus aureus (growth observed) ([4]; 1 μg/ml): X | Activity against Staphylococcus aureus (growth observed) ([4]; 2 μg/ml): X | Activity against Staphylococcus aureus (growth observed) ([4]; 3 μg/ml): X | Activity against Staphylococcus aureus (growth observed) ([4]; 4 μg/ml): X | Activity against Staphylococcus aureus (growth observed) ([4]; 5 μg/ml): X | Activity against Staphylococcus aureus (growth observed) ([4]; 6 μg/ml): X | Activity against Staphylococcus aureus (growth observed) ([4]; 7 μg/ml): X | Activity against Staphylococcus aureus (growth observed) ([4]; 8 μg/ml): X | Activity against Staphylococcus aureus (growth observed) ([4]; 9 μg/ml): X | Activity against Staphylococcus aureus (growth observed) ([4]; 10 μg/ml): X | Activity against Staphylococcus aureus (growth observed) ([4]; 25 μg/ml): X | MIC [4]: 1 µg/mL (≈ 1.56 µM) | Activity against Klebesiella pneumonia (growth observed) ([5]; 1 μg/ml): G | Activity against Klebesiella pneumonia (growth observed) ([5]; 2 μg/ml): G | Activity against Klebesiella pneumonia (growth observed) ([5]; 3 μg/ml): G | Activity against Klebesiella pneumonia (growth observed) ([5]; 4 μg/ml): G | Activity against Klebesiella pneumonia (growth observed) ([5]; 5 μg/ml): G | Activity against Klebesiella pneumonia (growth observed) ([5]; 6 μg/ml): G | Activity against Klebesiella pneumonia (growth observed) ([5]; 7 μg/ml): G | Activity against Klebesiella pneumonia (growth observed) ([5]; 8 μg/ml): G | Activity against Klebesiella pneumonia (growth observed) ([5]; 9 μg/ml): G | Activity against Klebesiella pneumonia (growth observed) ([5]; 10 μg/ml): G | Activity against Klebesiella pneumonia (growth observed) ([5]; 25 μg/ml): G | Activity against Acinetobacter baumannii (growth observed) ([6]; 1 μg/ml): G | Activity against Acinetobacter baumannii (growth observed) ([6]; 2 μg/ml): G | Activity against Acinetobacter baumannii (growth observed) ([6]; 3 μg/ml): G | Activity against Acinetobacter baumannii (growth observed) ([6]; 4 μg/ml): G | Activity against Acinetobacter baumannii (growth observed) ([6]; 5 μg/ml): G | Activity against Acinetobacter baumannii (growth observed) ([6]; 6 μg/ml): G | Activity against Acinetobacter baumannii (growth observed) ([6]; 7 μg/ml): G | Activity against Acinetobacter baumannii (growth observed) ([6]; 8 μg/ml): G | Activity against Acinetobacter baumannii (growth observed) ([6]; 9 μg/ml): G | Activity against Acinetobacter baumannii (growth observed) ([6]; 10 μg/ml): G | Activity against Acinetobacter baumannii (growth observed) ([6]; 25 μg/ml): G

CCCCCCC(=O)N1CCN(c2cc3c(cc2F)c(=O)c(C(=O)OC2C(=O)N(SC(C)CC)C2c2ccccc2Cl)cn3C2CC2)CC1 (centres unmarked) [Lactam 130]
Activity against Pseudomonas aeruginosa (growth observed) ([1]; 1 μg/ml): G | Activity against Pseudomonas aeruginosa (growth observed) ([1]; 2 μg/ml): G | Activity against Pseudomonas aeruginosa (growth observed) ([1]; 3 μg/ml): G | Activity against Pseudomonas aeruginosa (growth observed) ([1]; 4 μg/ml): G | Activity against Pseudomonas aeruginosa (growth observed) ([1]; 5 μg/ml): G | Activity against Pseudomonas aeruginosa (growth observed) ([1]; 6 μg/ml): G | Activity against Pseudomonas aeruginosa (growth observed) ([1]; 7 μg/ml): G | Activity against Pseudomonas aeruginosa (growth observed) ([1]; 8 μg/ml): G | Activity against Pseudomonas aeruginosa (growth observed) ([1]; 9 μg/ml): G | Activity against Pseudomonas aeruginosa (growth observed) ([1]; 10 μg/ml): G | Activity against Pseudomonas aeruginosa (growth observed) ([1]; 25 μg/ml): G | Activity against Enterococcus faecium (growth observed) ([2]; 1 μg/ml): G | Activity against Enterococcus faecium (growth observed) ([2]; 2 μg/ml): G | Activity against Enterococcus faecium (growth observed) ([2]; 3 μg/ml): G | Activity against Enterococcus faecium (growth observed) ([2]; 4 μg/ml): G | Activity against Enterococcus faecium (growth observed) ([2]; 5 μg/ml): G | Activity against Enterococcus faecium (growth observed) ([2]; 6 μg/ml): G | Activity against Enterococcus faecium (growth observed) ([2]; 7 μg/ml): G | Activity against Enterococcus faecium (growth observed) ([2]; 8 μg/ml): G | Activity against Enterococcus faecium (growth observed) ([2]; 9 μg/ml): G | Activity against Enterococcus faecium (growth observed) ([2]; 10 μg/ml): G | Activity against Enterococcus faecium (growth observed) ([2]; 25 μg/ml): G | Activity against Staphylococcus aureus (growth observed) ([4]; 1 μg/ml): G | Activity against Staphylococcus aureus (growth observed) ([4]; 2 μg/ml): G | Activity against Staphylococcus aureus (growth observed) ([4]; 3 μg/ml): G | Activity against Staphylococcus aureus (growth observed) ([4]; 4 μg/ml): G | Activity against Staphylococcus aureus (growth observed) ([4]; 5 μg/ml): G | Activity against Staphylococcus aureus (growth observed) ([4]; 6 μg/ml): G | Activity against Staphylococcus aureus (growth observed) ([4]; 7 μg/ml): G | Activity against Staphylococcus aureus (growth observed) ([4]; 8 μg/ml): G | Activity against Staphylococcus aureus (growth observed) ([4]; 9 μg/ml): G | Activity against Staphylococcus aureus (growth observed) ([4]; 10 μg/ml): X | Activity against Staphylococcus aureus (growth observed) ([4]; 25 μg/ml): X | MIC [4]: 10 µg/mL (≈ 14.1 µM) | Activity against Klebesiella pneumonia (growth observed) ([5]; 1 μg/ml): G | Activity against Klebesiella pneumonia (growth observed) ([5]; 2 μg/ml): G | Activity against Klebesiella pneumonia (growth observed) ([5]; 3 μg/ml): G | Activity against Klebesiella pneumonia (growth observed) ([5]; 4 μg/ml): G | Activity against Klebesiella pneumonia (growth observed) ([5]; 5 μg/ml): G | Activity against Klebesiella pneumonia (growth observed) ([5]; 6 μg/ml): G | Activity against Klebesiella pneumonia (growth observed) ([5]; 7 μg/ml): G | Activity against Klebesiella pneumonia (growth observed) ([5]; 8 μg/ml): G | Activity against Klebesiella pneumonia (growth observed) ([5]; 9 μg/ml): G | Activity against Klebesiella pneumonia (growth observed) ([5]; 10 μg/ml): G | Activity against Klebesiella pneumonia (growth observed) ([5]; 25 μg/ml): G | Activity against Acinetobacter baumannii (growth observed) ([6]; 1 μg/ml): G | Activity against Acinetobacter baumannii (growth observed) ([6]; 2 μg/ml): G | Activity against Acinetobacter baumannii (growth observed) ([6]; 3 μg/ml): G | Activity against Acinetobacter baumannii (growth observed) ([6]; 4 μg/ml): G | Activity against Acinetobacter baumannii (growth observed) ([6]; 5 μg/ml): G | Activity against Acinetobacter baumannii (growth observed) ([6]; 6 μg/ml): G | Activity against Acinetobacter baumannii (growth observed) ([6]; 7 μg/ml): G | Activity against Acinetobacter baumannii (growth observed) ([6]; 8 μg/ml): G | Activity against Acinetobacter baumannii (growth observed) ([6]; 9 μg/ml): G | Activity against Acinetobacter baumannii (growth observed) ([6]; 10 μg/ml): G | Activity against Acinetobacter baumannii (growth observed) ([6]; 25 μg/ml): G
